# Data as given in paper PMC9964244, “Effects of Dimerization, Dendrimerization, and Chirality in p-BthTX-I Peptide Analogs on the Antibacterial Activity and Enzymatic Inhibition of the SARS-CoV-2 PL^pro Protein” (Pharmaceutics, 2023).
# Where “and” joins values, the source holds several entries; their conditions need not be identical. Equal entries are not always repeated. Bridge positions count the residues as written; N and C are the ends. Peptide text beside a SMILES is read from it. I, II: the chains in the order shown.
# Assays:
# [1] = tested on: A. baumannii ATCC 19606; experiment: MIC/MBC, broth microdilution and subculture on CA-MH agar; format: cell-based, Acinetobacter baumannii; settings: triplicate, mode
# Procedure: (§1) Bacterial isolates from the American Type Culture Collection (ATCC) were obtained from the Collection of Reference Bacteria on Health Surveillance, Oswaldo Cruz Foundation (FIOCRUZ) after phenotypic and molecular quality control and were registered at SISGEN under the number ADB556B. The minimum inhibitory concentration (MIC) was determined as previously described by Santos-Filho et al., 2021 [17], using the broth microdilution method. The MIC was the lowest concentration that inhibited microbial growth. […] MBC was defined as the lowest peptide concentration with no visible growth on the plate. […] The assay was performed in triplicate, and the values represent the mode of the obtained results.
# (§2) Thus, to assess the relevance of the antimicrobial effect of p-Bth analogs, their Minimum Inhibitory Concentration (MIC) and Minimum Bactericidal Concentration (MBC) were analyzed against relevant bacteria. The evaluated strains were the Gram-positives: S. aureus ATCC 25923, S. epidermidis ATCC 35984, E. faecalis ATCC 29212, and E. faecium ATCC […] (Table 1); and the Gram-negatives: K. pneumoniae ATCC 700603, E. coli ATCC 25922, A. baumannii ATCC 19606, and P. aeruginosa ATCC 27853 (Table 2).
# [2] = tested on: E. faecalis ATCC 29212; experiment: as above; format: cell-based; set-up: key to Act (antibacterial activity): Bc, bactericidal; Bs, bacteriostatic
# Procedure: as §1, §2
# [3] = tested on: S. epidermidis ATCC 35984; experiment: as above; format: cell-based; set-up: key to Act (antibacterial activity): Bc, bactericidal; Bs, bacteriostatic
# Procedure: as §1, §2
# [4] = tested on: E. coli ATCC 25922; experiment: as above; format: cell-based; set-up: key to Act (antibacterial activity): Bc, bactericidal; Bs, bacteriostatic
# Procedure: as §1, §2
# [5] = tested on: S. aureus ATCC 25923; experiment: as above; format: cell-based, Staphylococcus aureus; set-up: key to Act (antibacterial activity): Bc, bactericidal; Bs, bacteriostatic
# Procedure: as §1, §2
# [6] = tested on: SARS-CoV-2; settings: Vero cells; cited from earlier work
# From the text: In December 2019, the first case of viral infection with a new coronavirus was reported in China, which was later named severe acute respiratory syndrome coronavirus 2 (SARS-CoV-2), and the disease caused by this was named coronavirus-2019 or COVID-19 by the WHO. This disease has taken on great proportions, causing a pandemic scenario and great global concern. Even with the improvements in disease control, there is still a need for new, specific antiviral therapeutic options. As antimicrobial peptides also have antiviral action, the L-dimer, D-dimer and L-tetramer, in addition to ...
# [7] = tested on: P. aeruginosa ATCC 27853; experiment: MIC/MBC, broth microdilution and subculture on CA-MH agar; format: cell-based, Pseudomonas aeruginosa; settings: broth microdilution, triplicate, mode
# Procedure: as §1, §2
# [8] = tested on: K. pneumoniae ATCC 700603; experiment: as above; format: cell-based, Klebsiella pneumoniae; settings: broth microdilution, triplicate, mode
# Procedure: as §1, §2
# [9] = biological target: T1, SARS-CoV-2 PL^pro (Severe acute respiratory syndrome coronavirus 2, UniProt P0DTD1); settings: PL^pro from SARS-CoV-2, ref 19 (Freire et al., 2021), cited from earlier work
# T1 construct: made in house
# Procedure: Table 3 PL^pro activity by peptide analogs of p-BThTX-I at the concentration of 10 μM and IC50 values. Representative concentration–response inhibition curves against PL^pro from SARS-CoV-2 are presented in the Supplementary Material (Figure S7). | column: Inhibition (%) at 10 µM; IC50 μM
# [10] = Carboxyfluorescein leakage, vesicle permeabilization; settings: 80% POPE / 20% POPG vesicles; peptide 50 µM
# Procedure: The permeabilization of lipid vesicles containing carboxyfluorescein was carried out using a spectrofluorometer model Fluorolog-3 FL3-122 from Horiba Jobin Yvon (Newark, NJ, USA) (dimers and tetramers) or in a spectrofluorometer model RF-1501 Shimadzu (Kyoto, Japan) (monomer). For RF-1501, the quantification of the fluorescence intensity was performed every 20 s. Two vesicle compositions were used: (1) 80% 1-palmitoyl-2-oleoyl-sn-glycero-3-phosphoethanolamine (POPE) and 20% 1-palmitoyl-2-oleoyl-sn-glycero- 3-phospho-(10-rac-glycerol) (POPG); and (2) 95% 1-palmitoyl-2-oleoyl-sn-glycero-3-phosphocholine (POPC) and 5% POPG. The percentage of leakage was obtained through the following equation:% release = (Fmeasured − Finitial)/(Ffinal − Finitial) × 100, where Ffinal is the average fluorescence value obtained after the addition of Triton, Finitial is the average of the initial values of the run before the addition of the peptide, and Fmeasured are the fluorescence values obtained at each point of the experiment.
# Here, we evaluated two systems of membrane mimetics, including vesicles with a composition of 80% POPE and 20% POPG, and another with 95% POPC and 5% POPG. The first is widely used as a model of bacterial membranes, specifically of E. coli membrane. Membranes constituting POPC and POPG were used to mimic mammalian membranes due to the presence of choline-containing lipids in animal membranes.
# [11] = tested on: E. faecium ATCC 700221; experiment: MIC/MBC, broth microdilution and subculture on CA-MH agar; format: cell-based, Enterococcus faecium; set-up: key to Act (antibacterial activity): Bc, bactericidal; Bs, bacteriostatic
# Procedure: as §1, §2
# [12] = tested on: erythrocytes; set-up: method as in earlier work; settings: at a concentration of 512 µg/mL; ref 17 (Santos-Filho et al., 2021); cited from earlier work
# [13] = MBC/MIC ratio >4 suggests bacteriostatic
# [14] = broth microdilution, triplicate, mode
# [15] = subculture on CA-MH agar, 37 °C, 24 h, triplicate, mode
compound,measurement,setting,value
"CC(C)C[C@H](NC(=O)[C@H](Cc1c[nH]cn1)NC(=O)[C@H](Cc1ccc(O)cc1)NC(=O)[C@H](CCCNC(=N)N)NC(=O)[C@H](Cc1ccc(O)cc1)NC(=O)[C@H](CCCCN)NC(=O)[C@@H](N)CCCCN)C(=O)N[C@@H](CCCCN)C(=O)N1CCC[C@H]1C(=O)N[C@@H](Cc1ccccc1)C(=O)NCCCC[C@H](NC(=O)[C@H](Cc1ccccc1)NC(=O)[C@@H]1CCCN1C(=O)[C@H](CCCCN)NC(=O)[C@H](CC(C)C)NC(=O)[C@H](Cc1c[nH]cn1)NC(=O)[C@H](Cc1ccc(O)cc1)NC(=O)[C@H](CCCNC(=N)N)NC(=O)[C@H](Cc1ccc(O)cc1)NC(=O)[C@H](CCCCN)NC(=O)[C@@H](N)CCCCN)C(N)=O [L-dimer, [des-Cys^11,Lys^12,Lys^13-(p-BthTX-I)2K]] (I: H-KKYRYHLKPFK-NH2 / II: H-KKYRYHLKPF; amide I:11-II:C; N-terminus assumed)",MIC,[1]; broth microdilution,89 µM and 256 μg/mL
same,MBC,"[1]; subculture on CA-MH agar, 37 °C, 24 h",>512 µg/mL
same,Act (antibacterial activity),[2]; [13],Bc
same,MIC,[2]; [14],22 µM and 64 μg/mL
same,MBC,[2]; [15],128 µg/mL
same,Act (antibacterial activity),[3]; [13],Bc
same,MIC,[3]; [14],8 μg/mL and 2 µM
same,MBC,[3]; [15],16 µg/mL
same,Act (antibacterial activity),[4]; [13],Bc
same,MIC,[4]; [14],32 μg/mL and 11 µM
same,MBC,[4]; [15],64 µg/mL
same,Act (antibacterial activity),[5]; [13],Bc
same,MIC,[5]; [14],32 μg/mL and 11 µM
same,MBC,[5]; [15],128 µg/mL
same,percentage inhibition of SARS-CoV-2 infection,[6],27%
same,MIC,[7],>512 μg/mL and >178 µM
same,MIC,[8],>128 μg/mL and >44 µM
same,Inhibition (%) at 10 µM,[9]; peptide 10 µM,98.05 ± 1.62%
same,IC50,[9],2400 ± 100 nM
same,"carboxyfluorescein leakage, maximum percentage",[10],15%
same,Act (antibacterial activity),[11]; [13],Bs
same,MIC,[11]; [14],16 μg/mL and 5 µM
same,MBC,[11]; [15],>64 µg/mL
same,hemolysis rate,[12],below 5%
